Measured values: publication PMC5769128, “Human UDP-Glucuronosyltransferase 2B4 and 2B7 Are Responsible for Naftopidil Glucuronidation in Vitro” (Frontiers in Pharmacology, 2018)

Assays:
recombinant human UGT2B4 = molecular target: T1, recombinant human UGT2B4 (Homo sapiens, UniProt P06133); assay: UGT reaction screening of NAF enantiomers, UGT2B4; type: in vitro ADME; settings: 10 μM substrate, 45 min
T1 construct: purchased BD Gentest
T1 sequence (P06133 24-528): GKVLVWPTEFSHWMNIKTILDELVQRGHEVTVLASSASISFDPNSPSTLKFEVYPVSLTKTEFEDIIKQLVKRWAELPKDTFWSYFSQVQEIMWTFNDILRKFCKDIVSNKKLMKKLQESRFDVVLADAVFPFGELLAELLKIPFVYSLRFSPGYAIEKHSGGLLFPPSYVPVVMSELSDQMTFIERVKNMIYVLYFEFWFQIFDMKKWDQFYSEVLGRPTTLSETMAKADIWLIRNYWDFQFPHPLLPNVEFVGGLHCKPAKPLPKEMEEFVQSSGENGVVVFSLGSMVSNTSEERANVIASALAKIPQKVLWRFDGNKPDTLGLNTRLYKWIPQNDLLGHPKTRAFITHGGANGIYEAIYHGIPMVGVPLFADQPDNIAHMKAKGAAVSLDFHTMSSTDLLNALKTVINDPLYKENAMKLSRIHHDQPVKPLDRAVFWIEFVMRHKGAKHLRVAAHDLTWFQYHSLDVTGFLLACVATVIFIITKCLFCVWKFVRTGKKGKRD

UGT2B7 = molecular target: T2, UGT2B7 (Homo sapiens, UniProt P16662); assay: Kinetics of NAF enantiomer glucuronidation by recombinant UGT2B7; type: in vitro ADME; design: purchased BD Gentest
T2 sequence (P16662 24-529): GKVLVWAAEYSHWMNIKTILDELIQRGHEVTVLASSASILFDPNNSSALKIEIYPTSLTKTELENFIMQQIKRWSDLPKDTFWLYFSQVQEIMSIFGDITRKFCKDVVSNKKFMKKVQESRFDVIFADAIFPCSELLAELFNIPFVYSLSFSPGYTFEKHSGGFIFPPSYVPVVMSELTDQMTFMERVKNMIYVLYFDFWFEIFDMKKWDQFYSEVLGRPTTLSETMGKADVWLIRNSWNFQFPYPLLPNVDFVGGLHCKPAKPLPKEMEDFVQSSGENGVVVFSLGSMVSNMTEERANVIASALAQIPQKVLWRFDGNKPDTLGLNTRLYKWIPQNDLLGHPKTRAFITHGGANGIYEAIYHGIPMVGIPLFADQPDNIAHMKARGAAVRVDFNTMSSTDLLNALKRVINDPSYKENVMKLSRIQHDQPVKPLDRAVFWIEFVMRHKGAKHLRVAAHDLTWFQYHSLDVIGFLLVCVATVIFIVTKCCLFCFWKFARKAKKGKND
Protocol: All glucuronidation assays were conducted in an incubation volume of 200 μL. Incubations were performed at 37°C in 50 mM Tris–HCl buffer (pH 7.5) with 10 mM magnesium chloride, 1 mg protein/mL of enzyme (microsomes and recombinant human UGTs), alamethicin (100 μg of alamethicin/mg microsomal protein), and NAF enantiomers (2.5–80 μM). The reaction was initiated by the addition of UDPGA (5 mM) and incubated at 37°C in a shaking water bath for 45 min. The reaction was terminated by the addition of 200 μL of ice-cold acetonitrile containing the IS (1 μM) and then centrifuged at 5000 ×g for 10 min at 4°C. The supernatant fraction was injected into the RRLC-MS/MS apparatus. Protein concentration (0.5–2 mg/mL) and incubation time (15–180 min) were optimized in preliminary studies to be within initial linear rate conditions.
Kinetic parameters were assessed in the HLM, RLM, HKM, RKM, and recombinant human UGTs (UGT2B4, 2B7, and 1A9).

[1] = test system: UGT1A4, 1A3, 2B17, 2B15, 1A9, 1A8, and 1A7; assay: UGT reaction screening of S(-)-NAF, minor isoforms; type: in vitro ADME, human; settings: 10 μM substrate, 45 min
UGT2B15 = molecular target: T3, UGT2B15 (Homo sapiens, UniProt P54855); assay: Inhibition screening of recombinant UGTs by NAF enantiomers, UGT2B15 (4-MU); type: in vitro ADME; settings: recombinant UGT2B15, probe 4-MU, 100 μM NAF enantiomer, read-out: Inhibition of 4-MU-G formation
T3 construct: purchased BD Gentest
T3 sequence (P54855 24-530): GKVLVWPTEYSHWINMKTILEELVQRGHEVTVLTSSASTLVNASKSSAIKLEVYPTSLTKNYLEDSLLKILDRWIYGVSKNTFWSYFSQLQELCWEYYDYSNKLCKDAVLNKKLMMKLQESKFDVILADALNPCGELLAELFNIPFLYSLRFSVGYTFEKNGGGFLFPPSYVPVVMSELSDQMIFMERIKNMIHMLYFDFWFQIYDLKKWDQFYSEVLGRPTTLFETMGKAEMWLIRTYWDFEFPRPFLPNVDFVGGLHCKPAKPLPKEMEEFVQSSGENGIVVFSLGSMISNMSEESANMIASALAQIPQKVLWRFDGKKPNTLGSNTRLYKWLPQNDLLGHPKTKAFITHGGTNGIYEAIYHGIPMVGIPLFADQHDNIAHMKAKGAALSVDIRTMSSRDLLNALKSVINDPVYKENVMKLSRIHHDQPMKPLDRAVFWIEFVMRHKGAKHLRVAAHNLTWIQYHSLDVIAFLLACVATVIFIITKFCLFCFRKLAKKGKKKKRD
Protocol: The inhibition screening study was performed by investigating the 12 recombinant UGTs with 10 and 100 μM NAF enantiomer. […] 4-MU, as a non-specific substrate, was added to the other incubated samples. Instead of NAF enantiomers, the same volume of water was added to be the control sample. […] The formation of 4-MU-G and TFP-G produced from the 12 incubation system were analyzed by HPLC. The instrument parameters for the LC were as follows: system, Agilent 1260; Agilent Eclipse Plus C18 (2.1 mm × 50 mm, 1.8 μm, Santa Clara, CA, United States); mobile phase, methanol: 0.1% formic acid in water (0–3 min, 35:65; 3.1–4.5 min, 65:35; 4.6–5 min, 35:65); flow rate, 0.4 mL/min; column temperature, 25°C; and injection volume, 2 μL. The retention times of 4-MU, 4-MU-G, TFP, TFP-G, and MU (IS) were 1.5, 0.5, 2.2, 1.8, and 1.0 min, respectively.

[2] = test system: UGT1A1, 1A4, 1A3, 2B17, 1A8, 2B15, and 1A7; assay: UGT reaction screening of R(+)-NAF, minor isoforms; type: in vitro ADME, human; settings: 10 μM substrate, 45 min

**Q.** For `COc1ccccc1N1CCN(C[C@H](O)COc2cccc3ccccc23)CC1` [S(-)-NAF], which “Glucuronidation activity of UGT2B4 compared with UGT2B7” value (recombinant human UGT2B4) is on record?
**A.** The value was “relatively higher activity than UGT2B7”.

**Q.** What about the Kinetics type (UGT2B7) of the same compound?
**A.** The Kinetics type was “substrate inhibition model”.

**Q.** What about the Glucuronidation activity [1] of the same compound?
**A.** Its Glucuronidation activity is “a small amount of activity”.

**Q.** What about the inhibition at 100 μM (UGT2B15) of the same compound?
**A.** The inhibition at 100 μM was greater than 75%.

**Q.** `COc1ccccc1N1CCN(C[C@@H](O)COc2cccc3ccccc23)CC1` [R(+)-NAF] was tested. Which “Glucuronidation activity, times lower than UGT2B7” value [2] did it give?
**A.** The value was “more than 10 times”.

**Q.** And the Kinetics type (UGT2B7)?
**A.** Its Kinetics type is “substrate inhibition model”.

**Q.** And the inhibition at 100 μM (UGT2B15)?
**A.** Its inhibition at 100 μM is greater than 75%.
